Source: article PMC11266321 (EJNMMI Radiopharmacy and Chemistry, 2024)
Where “and” joins values, the source holds several entries; their conditions need not be identical. Identical values can stand only once.

Experiments:
[1] = Tissue distribution of radioactivity in mice; format: in vivo, mouse; conditions: mean ± SD n = 4
Method: (§1) [^11C]MMP (8.1 MBq/17 pmol) was injected intravenously into 8-week-old male ddY mice (37.8–42.4 g). The tracer-injected mice were housed individually in filter-paper-lined animal-rearing cages until the time of euthanasia. Mice were euthanized by cervical dislocation at 1, 5, 15, 30, 60, and 90 min after injection (n = 4 each). Blood was collected by heart puncture, and the tissues were harvested. Radioactivity excreted into urine was recovered from the cage floor and by cystocentesis from the urinary bladder. The samples were measured for ^11C radioactivity with an auto-gamma counter (Hidex-AMG, Turku, Finland) and weighed. Tissue uptake of ^11C was expressed as the percentage of injected dose per organ (%ID/organ) or the percentage of injected dose per gram of tissue (%ID/g). The tissue distribution data were extrapolated to an adult male phantom using the %kg/g method (Blau [1975]). The radiation absorbed dose and effective dose for human adults were estimated using OLINDA/EXM software (Vanderbilt University, Nashville, TN) (Stabin et al. [2005]). Effective dose was estimated using the risk-weighting factor of ICRP Publication 103 (ICRP [2007]).

[2] = Radiation dosimetry for human adults estimated from mouse data (OLINDA/EXM)
Method: as §1

[3] = pH 5.36
[4] = human adults, estimated from mouse data

Structure (SMILES): CC(C)NC(C)Cc1ccc([11CH3])cc1 (centres unmarked) [[^11C]MMP, N-isopropyl-4-[^11C]methylamphetamine]
- Injected dose/organ (%), Bladder ([1]; 30 min after i.v. injection): 2.40 ± 1.59 %ID/organ
- Injected dose/organ (%), Bladder + urine ([1]; 30 min after i.v. injection): 32.99 ± 3.90 %ID/organ
- Injected dose/organ (%), Brain ([1]; 30 min after i.v. injection): 1.09 ± 0.11 %ID/organ
- Injected dose/organ (%), Heart ([1]; 30 min after i.v. injection): 0.21 ± 0.01 %ID/organ
- Injected dose/organ (%), Kidney ([1]; 30 min after i.v. injection): 4.79 ± 1.06 %ID/organ
- Injected dose/organ (%), Large intestine ([1]; 30 min after i.v. injection): 1.59 ± 0.61 %ID/organ
- Injected dose/organ (%), Liver ([1]; 30 min after i.v. injection): 12.97 ± 1.05 %ID/organ
- Injected dose/organ (%), Lung ([1]; 30 min after i.v. injection): 0.79 ± 0.09 %ID/organ
- Injected dose/organ (%), Pancreas ([1]; 30 min after i.v. injection): 0.83 ± 0.03 %ID/organ
- Injected dose/organ (%), Small intestine ([1]; 30 min after i.v. injection): 3.66 ± 0.59 %ID/organ
- Injected dose/organ (%), Spleen ([1]; 30 min after i.v. injection): 0.35 ± 0.07 %ID/organ
- Injected dose/organ (%), Stomach ([1]; 30 min after i.v. injection): 1.76 ± 0.50 %ID/organ
- Injected dose/organ (%), Testis ([1]; 30 min after i.v. injection): 0.52 ± 0.11 %ID/organ
- Injected dose/organ (%), Urine ([1]; 30 min after i.v. injection): 30.59 ± 5.33 %ID/organ
- Injected dose/g tissue (%), Blood ([1]; 60 min after i.v. injection): 0.56 ± 0.23 %ID/g
- Injected dose/g tissue (%), Bone ([1]; 60 min after i.v. injection): 0.49 ± 0.04 %ID/g
- Injected dose/g tissue (%), Brain ([1]; 60 min after i.v. injection): 1.01 ± 0.09 %ID/g
- Injected dose/g tissue (%), Heart ([1]; 60 min after i.v. injection): 0.56 ± 0.22 %ID/g
- Injected dose/g tissue (%), Kidney ([1]; 60 min after i.v. injection): 3.73 ± 3.22 %ID/g
- Injected dose/g tissue (%), Large intestine ([1]; 60 min after i.v. injection): 0.61 ± 0.27 %ID/g
- Injected dose/g tissue (%), Liver ([1]; 60 min after i.v. injection): 2.93 ± 0.85 %ID/g
- Injected dose/g tissue (%), Lung ([1]; 60 min after i.v. injection): 1.73 ± 0.45 %ID/g
- Injected dose/g tissue (%), Muscle ([1]; 60 min after i.v. injection): 0.51 ± 0.24 %ID/g
- Injected dose/g tissue (%), Pancreas ([1]; 60 min after i.v. injection): 2.52 ± 0.24 %ID/g
- Injected dose/g tissue (%), Small intestine ([1]; 60 min after i.v. injection): 1.88 ± 0.59 %ID/g
- Injected dose/g tissue (%), Spleen ([1]; 60 min after i.v. injection): 1.47 ± 0.44 %ID/g
- Injected dose/g tissue (%), Stomach ([1]; 60 min after i.v. injection): 1.27 ± 0.89 %ID/g
- Injected dose/g tissue (%), Testis ([1]; 60 min after i.v. injection): 1.85 ± 0.35 %ID/g
- Injected dose/organ (%), Bladder ([1]; 60 min after i.v. injection): 0.23 ± 0.12 %ID/organ
- Injected dose/organ (%), Bladder + urine ([1]; 60 min after i.v. injection): 53.94 ± 7.66 %ID/organ
- Injected dose/organ (%), Brain ([1]; 60 min after i.v. injection): 0.41 ± 0.06 %ID/organ
- Injected dose/organ (%), Heart ([1]; 60 min after i.v. injection): 0.11 ± 0.03 %ID/organ
- Injected dose/organ (%), Kidney ([1]; 60 min after i.v. injection): 2.37 ± 2.03 %ID/organ
- Injected dose/organ (%), Large intestine ([1]; 60 min after i.v. injection): 0.85 ± 0.51 %ID/organ
- Injected dose/organ (%), Liver ([1]; 60 min after i.v. injection): 6.29 ± 1.96 %ID/organ
- Injected dose/organ (%), Lung ([1]; 60 min after i.v. injection): 0.36 ± 0.10 %ID/organ
- Injected dose/organ (%), Pancreas ([1]; 60 min after i.v. injection): 0.47 ± 0.04 %ID/organ
- Injected dose/organ (%), Small intestine ([1]; 60 min after i.v. injection): 3.41 ± 0.77 %ID/organ
- Injected dose/organ (%), Spleen ([1]; 60 min after i.v. injection): 0.17 ± 0.02 %ID/organ
- Injected dose/organ (%), Stomach ([1]; 60 min after i.v. injection): 0.82 ± 0.44 %ID/organ
- Injected dose/organ (%), Testis ([1]; 60 min after i.v. injection): 0.53 ± 0.15 %ID/organ
- Injected dose/organ (%), Urine ([1]; 60 min after i.v. injection): 53.71 ± 7.68 %ID/organ
- Injected dose/g tissue (%), Blood ([1]; 90 min after i.v. injection): 0.23 ± 0.09 %ID/g
- Injected dose/g tissue (%), Bone ([1]; 90 min after i.v. injection): 0.59 ± 0.14 %ID/g
- Injected dose/g tissue (%), Brain ([1]; 90 min after i.v. injection): 0.45 ± 0.08 %ID/g
- Injected dose/g tissue (%), Heart ([1]; 90 min after i.v. injection): 0.35 ± 0.14 %ID/g
- Injected dose/g tissue (%), Kidney ([1]; 90 min after i.v. injection): 6.64 ± 3.76 %ID/g
- Injected dose/g tissue (%), Large intestine ([1]; 90 min after i.v. injection): 0.61 ± 0.16 %ID/g
- Injected dose/g tissue (%), Liver ([1]; 90 min after i.v. injection): 1.94 ± 0.88 %ID/g
- Injected dose/g tissue (%), Lung ([1]; 90 min after i.v. injection): 1.03 ± 0.13 %ID/g
- Injected dose/g tissue (%), Muscle ([1]; 90 min after i.v. injection): 0.42 ± 0.18 %ID/g
- Injected dose/g tissue (%), Pancreas ([1]; 90 min after i.v. injection): 1.25 ± 0.34 %ID/g
- Injected dose/g tissue (%), Small intestine ([1]; 90 min after i.v. injection): 1.34 ± 1.24 %ID/g
- Injected dose/g tissue (%), Spleen ([1]; 90 min after i.v. injection): 0.56 ± 0.17 %ID/g
- Injected dose/g tissue (%), Stomach ([1]; 90 min after i.v. injection): 1.52 ± 1.28 %ID/g
- Injected dose/g tissue (%), Testis ([1]; 90 min after i.v. injection): 1.47 ± 0.44 %ID/g
- Injected dose/organ (%), Bladder ([1]; 90 min after i.v. injection): 2.32 ± 1.75 %ID/organ
- Injected dose/organ (%), Bladder + urine ([1]; 90 min after i.v. injection): 58 %ID/organ and 57.89 ± 3.18 %ID/organ
- Injected dose/organ (%), Brain ([1]; 90 min after i.v. injection): 0.21 ± 0.07 %ID/organ
- Injected dose/organ (%), Heart ([1]; 90 min after i.v. injection): 0.07 ± 0.03 %ID/organ
- Injected dose/organ (%), Kidney ([1]; 90 min after i.v. injection): 4.56 ± 2.94 %ID/organ
- Injected dose/organ (%), Large intestine ([1]; 90 min after i.v. injection): 0.77 ± 0.16 %ID/organ
- Injected dose/organ (%), Liver ([1]; 90 min after i.v. injection): 4.85 ± 2.18 %ID/organ
- Injected dose/organ (%), Lung ([1]; 90 min after i.v. injection): 0.23 ± 0.03 %ID/organ
- Injected dose/organ (%), Pancreas ([1]; 90 min after i.v. injection): 0.25 ± 0.05 %ID/organ
- Injected dose/organ (%), Small intestine ([1]; 90 min after i.v. injection): 2.47 ± 2.43 %ID/organ
- Injected dose/organ (%), Spleen ([1]; 90 min after i.v. injection): 0.08 ± 0.03 %ID/organ
- Injected dose/organ (%), Stomach ([1]; 90 min after i.v. injection): 0.84 ± 0.56 %ID/organ
- Injected dose/organ (%), Testis ([1]; 90 min after i.v. injection): 0.49 ± 0.17 %ID/organ
- Injected dose/organ (%), Urine ([1]; 90 min after i.v. injection): 55.57 ± 3.04 %ID/organ
- Effective dose ([2]; administration of 740 MBq): 4.0 mSv
- highest absorbed dose, urinary bladder wall ([2]; administration of 740 MBq): 42.6 mGy
- Absorbed dose, Adrenal [2, 4]: 2.21 µGy/MBq
- Absorbed dose, Brain [2, 4]: 3.67 µGy/MBq
- Absorbed dose, Breast [2, 4]: 1.34 µGy/MBq
- Absorbed dose, Gallbladder wall [2, 4]: 2.43 µGy/MBq
- Absorbed dose, Heart wall [2, 4]: 3.02 µGy/MBq
- Absorbed dose, Kidney [2, 4]: 8.6 µGy/MBq and 8.56 µGy/MBq
- Absorbed dose, Liver [2, 4]: 4.78 µGy/MBq
- Absorbed dose, Lower large intestine wall [2, 4]: 4.03 µGy/MBq
- Absorbed dose, Lungs [2, 4]: 7.3 µGy/MBq and 7.29 µGy/MBq
- Absorbed dose, Muscle [2, 4]: 2.70 µGy/MBq
- Absorbed dose, Osteogenic cells [2, 4]: 2.41 µGy/MBq
- Absorbed dose, Ovaries [2, 4]: 3.09 µGy/MBq
- Absorbed dose, Pancreas [2, 4]: 5.5 µGy/MBq and 5.53 µGy/MBq
- Absorbed dose, Red marrow [2, 4]: 2.12 µGy/MBq
- Absorbed dose, Skin [2, 4]: 1.29 µGy/MBq
- Absorbed dose, Small intestine [2, 4]: 4.51 µGy/MBq
- Absorbed dose, Spleen [2, 4]: 3.57 µGy/MBq
- Absorbed dose, Stomach wall [2, 4]: 3.59 µGy/MBq
- Absorbed dose, Testes [2, 4]: 2.66 µGy/MBq
- Absorbed dose, Thymus [2, 4]: 1.70 µGy/MBq
- Absorbed dose, Thyroid [2, 4]: 1.62 µGy/MBq
- Absorbed dose, Total body [2, 4]: 2.65 µGy/MBq
- Absorbed dose, Upper large intestine wall [2, 4]: 3.32 µGy/MBq
- Absorbed dose, Urinary bladder wall [2, 4]: 57.6 µGy/MBq
- Absorbed dose, Uterus [2, 4]: 4.51 µGy/MBq
- Radiochemical purity (stability test), mean of three runs [3]: 99.7 ± 0.2%
